The numbers were not newly measured in patent US11058615B1, “Cosmetic dermal serum with skin rejuvenation properties” (Key Element LLC, priority 2018, dated 2021), which cites them from elsewhere.

One data set concerns hyperpigmentation. The following applies: hyperpigmentation caused by exposure to UVA and UVB.
Another data set deals with skin blemishes. The following applies: recent clinical studies (ncbi.nlm.nih.gov/pubmed/18492184).

For `O=C1O[C@H]([C@@H](O)CO)C([O-])=C1OP(=O)([O-])[O-].[Na+].[Na+].[Na+]` [SAP, Sodium Ascorbyl Phosphate], the “efficacy in helping to normalize skin tone” value in the data set on hyperpigmentation is recorded as “excellent efficacy”. Further, the “efficacy to fight skin blemishes” value with skin blemishes is “significant efficacy”.
